pIC50: −log10 of the molar value. Converted amounts (≈) assume the structure as drawn.
Assays:
5-lipoxygenase (5-LOX) = target: T1, 5-lipoxygenase (5-LOX) (Homo sapiens, UniProt P09917); assay: 5-LOX inhibition (commercial kit, abcam ab284521); assay type: biochemical; details: expressed per dry mass; 1% DMSO
T1 construct: purchased abcam ab284521
T1 sequence (P09917 1-674): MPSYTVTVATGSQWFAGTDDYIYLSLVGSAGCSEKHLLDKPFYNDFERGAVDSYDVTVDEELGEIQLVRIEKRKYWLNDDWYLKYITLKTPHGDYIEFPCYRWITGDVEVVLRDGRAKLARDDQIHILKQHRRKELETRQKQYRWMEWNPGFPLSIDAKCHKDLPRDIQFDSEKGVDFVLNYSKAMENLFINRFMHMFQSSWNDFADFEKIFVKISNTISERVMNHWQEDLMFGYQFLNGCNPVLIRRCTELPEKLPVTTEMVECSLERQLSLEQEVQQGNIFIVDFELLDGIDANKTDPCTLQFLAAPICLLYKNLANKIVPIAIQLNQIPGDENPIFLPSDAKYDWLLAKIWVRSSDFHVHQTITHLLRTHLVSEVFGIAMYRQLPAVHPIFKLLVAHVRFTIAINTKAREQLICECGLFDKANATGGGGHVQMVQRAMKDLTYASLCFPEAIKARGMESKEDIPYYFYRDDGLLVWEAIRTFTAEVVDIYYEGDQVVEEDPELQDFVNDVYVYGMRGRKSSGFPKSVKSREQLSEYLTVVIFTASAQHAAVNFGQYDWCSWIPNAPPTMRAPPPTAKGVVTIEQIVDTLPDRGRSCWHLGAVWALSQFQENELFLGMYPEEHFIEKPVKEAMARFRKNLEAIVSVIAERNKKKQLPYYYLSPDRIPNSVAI
Protocol: The selected peel extracts as well as the standards of triterpenic compounds were analyzed for their antioxidative and anti-inflammatory properties. Due to their hydrophobic character, the samples were dissolved in dimethyl sulfoxide (DMSO). The content of DMSO in the reaction media in all the tests described below was 1% for all the tested samples as well as the controls.
The anti-inflammatory activity was evaluated using commercial kits for three enzymes of biological activity: cyclooxygenases 1 and 2 (COX-1 and COX-2) and 5-lipoxygenase (5-LOX), according to the instructions of the producers. Inhibition of the cyclooxygenases was measured using kits from Cayman Chemicals (Ann Arbor, MI, USA; items 701070 and 701080, respectively), while 5-LOX inhibition was measured using a kit from abcam (Cambridge, UK; item no. ab284521).

cyclooxygenase 2 (COX-2) = target: T2, cyclooxygenase 2 (COX-2) (Homo sapiens, UniProt P35354); assay: COX-2 inhibition (commercial kit, Cayman Chemicals item 701080); assay type: biochemical; details: expressed per dry mass; 1% DMSO
T2 sequence (P35354 18-604): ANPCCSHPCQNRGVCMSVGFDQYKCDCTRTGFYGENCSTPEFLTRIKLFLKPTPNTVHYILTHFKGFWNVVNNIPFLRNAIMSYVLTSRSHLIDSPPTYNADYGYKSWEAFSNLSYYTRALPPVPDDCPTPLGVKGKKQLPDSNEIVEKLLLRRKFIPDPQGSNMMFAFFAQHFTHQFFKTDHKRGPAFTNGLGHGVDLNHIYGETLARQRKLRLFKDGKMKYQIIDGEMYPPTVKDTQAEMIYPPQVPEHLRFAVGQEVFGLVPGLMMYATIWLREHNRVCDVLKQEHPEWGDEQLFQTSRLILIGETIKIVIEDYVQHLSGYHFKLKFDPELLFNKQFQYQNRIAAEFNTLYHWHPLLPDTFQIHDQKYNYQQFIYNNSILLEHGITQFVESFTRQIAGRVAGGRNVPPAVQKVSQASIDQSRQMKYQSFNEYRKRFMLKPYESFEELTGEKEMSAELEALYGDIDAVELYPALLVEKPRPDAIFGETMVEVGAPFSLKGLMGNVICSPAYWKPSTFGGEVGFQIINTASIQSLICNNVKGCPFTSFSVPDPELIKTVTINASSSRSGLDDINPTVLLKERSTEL

cyclooxygenase 1 (COX-1) = target: T3, cyclooxygenase 1 (COX-1) (Homo sapiens, UniProt P23219); assay: COX-1 inhibition (commercial kit, Cayman Chemicals item 701070); assay type: biochemical; details: expressed per dry mass; 1% DMSO
T3 construct: purchased Cayman Chemicals 701070
T3 sequence (P23219 24-599): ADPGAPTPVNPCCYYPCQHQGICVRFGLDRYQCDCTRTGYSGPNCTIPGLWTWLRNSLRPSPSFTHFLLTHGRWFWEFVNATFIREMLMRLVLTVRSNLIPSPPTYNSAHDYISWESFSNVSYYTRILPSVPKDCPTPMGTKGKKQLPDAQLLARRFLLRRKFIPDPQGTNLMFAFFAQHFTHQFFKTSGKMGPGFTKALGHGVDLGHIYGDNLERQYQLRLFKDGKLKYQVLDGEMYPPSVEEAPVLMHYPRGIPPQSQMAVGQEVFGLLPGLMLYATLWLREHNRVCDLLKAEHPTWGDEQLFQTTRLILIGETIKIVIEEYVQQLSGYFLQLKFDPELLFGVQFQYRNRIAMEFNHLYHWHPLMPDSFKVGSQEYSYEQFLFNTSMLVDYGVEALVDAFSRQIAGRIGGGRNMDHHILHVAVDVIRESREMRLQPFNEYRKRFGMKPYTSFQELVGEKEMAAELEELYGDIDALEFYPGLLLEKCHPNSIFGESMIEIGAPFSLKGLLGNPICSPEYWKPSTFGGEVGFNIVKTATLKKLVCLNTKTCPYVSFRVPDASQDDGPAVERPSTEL

[1] = ABTS radical cation scavenging activity; details: expressed per dry mass; 1% DMSO; 6 min incubation, 734 nm
Protocol: The scavenging activity against ABTS^•+ was measured with a protocol described by Re et al. [63]. […] Then, 25 µL samples were mixed with 2.5 mL of ABTS^•+ solution and incubated for 6 min. […] Trolox was chosen as a reference antioxidant.

[2] = DPPH radical scavenging activity; details: expressed per dry mass; 1% DMSO; 30 min at room temperature, 517 nm
Protocol: A method described by Yen and Chen was used to determine the activity against DPPH^• [64]. Briefly, 0.1 mL samples were mixed with 2 mL of DPPH^• solution (1 mM) and incubated at room temperature for 30 min. […] Trolox was chosen as a reference antioxidant.

[3] = heating; cited from earlier work

Compound	pIC50 (5-lipoxygenase (5-LOX))	pIC50 (cyclooxygenase 2 (COX-2))	pIC50 (cyclooxygenase 1 (COX-1))	IC50 ABTS^•+ scavenging [1] [µg/mL]	IC50 DPPH^• scavenging [2] [µg/mL]	temperature above which degradative processes occur [3]
O=C(/C=C/c1ccc(O)c(O)c1)O[C@@H]1C[C@](O)(C(=O)O)C[C@@H](O)[C@H]1O [Chlorogenic Acid, chlorogenic acid]	< 1.85	2.76	2.53	–	–	–
CC1(C)CC[C@]2(C(=O)O)CC[C@]3(C)C(=CC[C@@H]4[C@@]5(C)CC[C@H](O)C(C)(C)[C@@H]5CC[C@]43C)[C@@H]2C1 [Oleanolic Acid, Oleanolic acid]	2.85	–	–	155 ± 7 (≈ 339 µM)	96 ± 5 (≈ 210 µM)	above 200 °C
O=C(CCc1ccc(O)cc1)c1c(O)cc(O)cc1O[C@@H]1O[C@H](CO)[C@@H](O)[C@H](O)[C@H]1O [Phloridzin, phloridzin]	< 1.94	2.83	2.66	34 ± 4 (≈ 77.9 µM)	23 ± 3 (≈ 52.7 µM)	–
C[C@H]1[C@H](C)CC[C@]2(C(=O)O)CC[C@]3(C)C(=CC[C@@H]4[C@@]5(C)CC[C@H](O)C(C)(C)[C@@H]5CC[C@]43C)[C@H]12 [Ursolic Acid, Ursolic acid]	2.80	4.17	3.94	–	–	–
CC[C@H](CC[C@@H](C)[C@H]1CC[C@H]2[C@@H]3CC=C4C[C@@H](O)CC[C@]4(C)[C@H]3CC[C@]12C)C(C)C [β-Sitosterol, β-sitosterol]	2.38	3.04	–	–	–	–
